Measurements published in patent publication US12357631B2 (priority 2018, dated 2025).

Columns and labels:
Experiment in all cases: biochemical
Type in all cases: binding
[1] = target: PB2 (Influenza A virus, UniProt P03428)
[2] = target: PB2 CDlp7007 H3N2 (Influenza A virus, UniProt P31345)
[3] = target: PB2 CDlp7026 H1N1 (Influenza A virus, UniProt P03428)
[4] = target: PB2 CDlp7028 H3N2 (Influenza A virus, UniProt P31345)
PB2 CDlp7028 H3N2, sequence (P31345 whole entry, looked up): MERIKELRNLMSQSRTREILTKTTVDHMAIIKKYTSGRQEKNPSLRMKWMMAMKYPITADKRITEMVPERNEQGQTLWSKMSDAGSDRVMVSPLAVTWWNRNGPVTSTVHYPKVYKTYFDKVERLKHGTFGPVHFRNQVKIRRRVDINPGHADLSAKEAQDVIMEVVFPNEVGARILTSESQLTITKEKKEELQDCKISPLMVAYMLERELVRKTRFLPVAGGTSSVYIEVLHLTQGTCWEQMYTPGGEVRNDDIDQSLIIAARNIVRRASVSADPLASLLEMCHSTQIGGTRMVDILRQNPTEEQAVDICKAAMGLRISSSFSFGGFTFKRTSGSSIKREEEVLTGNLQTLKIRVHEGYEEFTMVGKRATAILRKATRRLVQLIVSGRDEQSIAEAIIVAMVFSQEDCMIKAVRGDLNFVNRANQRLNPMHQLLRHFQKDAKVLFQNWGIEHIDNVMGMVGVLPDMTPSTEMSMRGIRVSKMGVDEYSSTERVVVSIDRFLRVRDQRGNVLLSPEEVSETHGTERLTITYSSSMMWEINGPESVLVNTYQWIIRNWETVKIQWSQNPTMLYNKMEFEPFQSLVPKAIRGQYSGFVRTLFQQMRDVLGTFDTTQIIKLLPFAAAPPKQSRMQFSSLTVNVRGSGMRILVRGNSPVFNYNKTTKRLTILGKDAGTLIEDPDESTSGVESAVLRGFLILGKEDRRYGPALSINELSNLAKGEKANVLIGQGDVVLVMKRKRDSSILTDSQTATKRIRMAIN

PB2 CDlp7007 H3N2, sequence (P31345 whole entry, looked up): as above
PB2, sequence (P03428 whole entry, looked up): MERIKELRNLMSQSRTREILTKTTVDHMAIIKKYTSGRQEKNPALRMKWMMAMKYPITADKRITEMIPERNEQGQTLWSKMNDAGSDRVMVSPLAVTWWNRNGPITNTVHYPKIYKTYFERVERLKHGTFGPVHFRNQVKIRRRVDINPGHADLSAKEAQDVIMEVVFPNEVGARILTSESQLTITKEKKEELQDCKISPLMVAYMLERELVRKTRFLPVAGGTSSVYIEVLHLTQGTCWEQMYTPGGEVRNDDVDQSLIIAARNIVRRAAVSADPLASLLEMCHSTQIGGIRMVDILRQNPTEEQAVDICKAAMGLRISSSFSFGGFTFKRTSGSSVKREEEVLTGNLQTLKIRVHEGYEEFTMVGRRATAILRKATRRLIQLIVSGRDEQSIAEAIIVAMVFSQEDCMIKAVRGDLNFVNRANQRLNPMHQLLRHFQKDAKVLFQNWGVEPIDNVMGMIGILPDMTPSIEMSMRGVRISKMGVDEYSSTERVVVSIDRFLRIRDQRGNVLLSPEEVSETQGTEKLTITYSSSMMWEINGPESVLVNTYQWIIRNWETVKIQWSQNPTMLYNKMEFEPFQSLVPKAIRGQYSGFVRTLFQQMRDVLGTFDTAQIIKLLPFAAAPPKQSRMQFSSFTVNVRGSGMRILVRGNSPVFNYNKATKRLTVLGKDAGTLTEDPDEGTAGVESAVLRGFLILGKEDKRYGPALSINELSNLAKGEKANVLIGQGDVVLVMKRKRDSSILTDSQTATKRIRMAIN
PB2 CDlp7026 H1N1, sequence (P03428 whole entry, looked up): as above

Q: Which results are given for `CCNC(=O)OCc1ccnc(C(=O)N[C@@H]2CCC[C@H](Nc3nc(-c4c[nH]c5ncc(F)cc45)ncc3F)C2)c1` [Compound A70]?
A: EC50 [1]: < 5 µM; IC50 [2]: 5 to 25 µM; IC50 [3]: 5 to 25 µM; IC50 [4]: < 5 µM

Q: For `CCOCCOCCOCCNC(=O)N[C@@H]1CCC[C@H](Nc2nc(-c3c[nH]c4ncc(F)cc34)ncc2F)C1` [Compound A164], which EC50 [1] is on record?
A: Its EC50 is 25 to 50 µM.

Q: And the IC50 [2]?
A: The IC50 was 25 to 50 µM.

Q: For `CCOCCOCCOCCN(C)C(=O)N[C@@H]1CCC[C@H](Nc2nc(-c3c[nH]c4ncc(F)cc34)ncc2F)C1` [Compound A165], which IC50 [2] is on record?
A: Its IC50 is 50 to 100 µM.

Q: What about the IC50 [4] of the same compound?
A: The IC50 was 50 to 100 µM.

Q: How did the IC50 [2] turn out when `CCOCCOCCCCCN(C)C(=O)N[C@@H]1CCC[C@H](Nc2nc(-c3c[nH]c4ncc(F)cc34)ncc2F)C1` [Compound A181] was run?
A: The IC50 was 50 to 100 µM.

Q: What about the IC50 [4] of the same compound?
A: The IC50 was 25 to 50 µM.

Q: How did the EC50 [1] turn out when `COCCOCCCCCCN(C)C(=O)N[C@H]1CCC[C@@H](Nc2nc(-c3c[nH]c4ncc(F)cc34)ncc2F)C1` [Compound A244] was run?
A: The EC50 was greater than 100 µM.

Q: How did the EC50 [1] turn out when `CCOC1CCCCC1OCCCCCN(C)C(=O)N[C@H]1CCC[C@@H](Nc2nc(-c3c[nH]c4ncc(F)cc34)ncc2F)C1` (stereo partly shown) [Compound A245] was run?
A: Its EC50 is greater than 100 µM.

Q: Which EC50 [1] does the source give for `CCC(CC)OCCOCCCCCN(C)C(=O)N[C@H]1CCC[C@@H](Nc2nc(-c3c[nH]c4ncc(F)cc34)ncc2F)C1` [Compound A246] here?
A: Its EC50 is greater than 100 µM.

Q: Which EC50 [1] does the source give for `CCOCCOCCCCCN(C(=O)N[C@@H]1CCC[C@H](Nc2nc(-c3c[nH]c4ncc(Cl)cc34)ncc2F)C1)C(C)C` [Compound A248] here?
A: Its EC50 is greater than 100 µM.

Q: For `CCOCCOCCCCCN(C(=O)N[C@@H]1CCC[C@H](Nc2nc(-c3c[nH]c4ncc(Cl)cc34)ncc2Cl)C1)C(C)C` [Compound A249], which EC50 [1] is on record?
A: The EC50 was greater than 100 µM.

Q: How did the EC50 [1] turn out when `CCOCCOCCCCCN(C(=O)N[C@H]1CCC[C@@H](Nc2nc(-c3c[nH]c4ncc(F)cc34)ncc2Cl)C1)C(C)C` [Compound A250] was run?
A: The EC50 was greater than 100 µM.

Q: For `CCOCCOCCOCC(=O)N[C@@H]1CCC[C@H](Nc2nc(-c3c[nH]c4ncc(F)cc34)ncc2F)C1` [Compound A263], which EC50 [1] is on record?
A: The EC50 was 25 to 50 µM.

Q: What about the IC50 [2] of the same compound?
A: Its IC50 is 25 to 50 µM.

Q: Which EC50 [1] does the source give for `CCOCCOCCOCCNC(=O)N[C@@H]1CCC[C@H](Nc2nc(-c3c[nH]c4ncc(F)cc34)ncc2F)C1` [Compound A264] here?
A: Its EC50 is greater than 100 µM.

Q: `O=C(COCCOCCOCCO)N[C@@H]1CCC[C@H](Nc2nc(-c3c[nH]c4ncc(F)cc34)ncc2F)C1` [Compound A265] was tested. Which EC50 [1] did it give?
A: Its EC50 is 5 to 25 µM.

Q: `CCOCCOCCOCCS(=O)(=O)N[C@@H]1CCC[C@H](Nc2nc(-c3c[nH]c4ncc(F)cc34)ncc2F)C1` [Compound A266] was tested. Which EC50 [1] did it give?
A: The EC50 was 5 to 25 µM.

Q: How did the EC50 [1] turn out when `NCCOCCOCCOCC(=O)N[C@@H]1CCC[C@H](Nc2nc(-c3c[nH]c4ncc(F)cc34)ncc2F)C1` [Compound A267] was run?
A: Its EC50 is 25 to 50 µM.

Q: With `O=C(O)CCOCCOCCOCC(=O)N[C@H]1CCC[C@@H](Nc2nc(-c3c[nH]c4ncc(F)cc34)ncc2F)C1` [Compound A268] as the compound, how does the EC50 [1] read?
A: Its EC50 is less than 5 µM.

Q: Which EC50 [1] does the source give for `O=C(O)COCCOCCOCCC(=O)N[C@H]1CCC[C@@H](Nc2nc(-c3c[nH]c4ncc(F)cc34)ncc2F)C1` [Compound A269] here?
A: The EC50 was 5 to 25 µM.

Q: Which results are given for `CCOCCOCCCCC(=O)N[C@@H]1CCC[C@H](Nc2nc(-c3c[nH]c4ncc(F)cc34)ncc2F)C1` [Compound A270]?
A: IC50 [2]: > 100 µM; IC50 [4]: > 100 µM

Q: How did the EC50 [1] turn out when `CCCCCCCCCCC(=O)N[C@@H]1CCC[C@H](Nc2nc(-c3c[nH]c4ncc(F)cc34)ncc2F)C1` [Compound A271] was run?
A: Its EC50 is 50 to 100 µM.

Q: How did the EC50 [1] turn out when `CCCCCOCCOCC(=O)N[C@@H]1CCC[C@H](Nc2nc(-c3c[nH]c4ncc(F)cc34)ncc2F)C1` [Compound A272] was run?
A: Its EC50 is 50 to 100 µM.

Q: Which EC50 [1] does the source give for `CCOCCOc1cccc(CC(=O)N[C@@H]2CCC[C@H](Nc3nc(-c4c[nH]c5ncc(F)cc45)ncc3F)C2)c1` [Compound A273] here?
A: Its EC50 is 50 to 100 µM.

Q: For `CCOCCCCCOCC(=O)N[C@@H]1CCC[C@H](Nc2nc(-c3c[nH]c4ncc(F)cc34)ncc2F)C1` [Compound A274], which EC50 [1] is on record?
A: The EC50 was greater than 100 µM.

Q: With `CCOCc1cccc(COCC(=O)N[C@@H]2CCC[C@H](Nc3nc(-c4c[nH]c5ncc(F)cc45)ncc3F)C2)c1` [Compound A275] as the compound, how does the EC50 [1] read?
A: Its EC50 is greater than 100 µM.

Q: For `CCCCCOCCOCC(=O)N[C@H]1CCC[C@@H](Nc2nc(-c3c[nH]c4ncc(F)cc34)ncc2F)C1` [Compound A277], which EC50 [1] is on record?
A: Its EC50 is greater than 100 µM.

Q: With `CCOCCOc1cccc(CC(=O)N[C@H]2CCC[C@@H](Nc3nc(-c4c[nH]c5ncc(F)cc45)ncc3F)C2)c1` [Compound A279] as the compound, how does the EC50 [1] read?
A: Its EC50 is greater than 100 µM.

Q: With `CCOCCOCCCCCOC(=O)N[C@@H]1CCC[C@H](Nc2nc(-c3c[nH]c4ncc(F)cc34)ncc2F)C1` [Compound A281] as the compound, how does the EC50 [1] read?
A: The EC50 was greater than 100 µM.

Q: How did the EC50 [1] turn out when `COC(=O)N[C@H]1CCC[C@@H](Nc2nc(-c3c[nH]c4ncc(F)cc34)ncc2F)C1` [Compound A286] was run?
A: Its EC50 is 25 to 50 µM.

Q: How did the EC50 [1] turn out when `CCOCCOCCCc1ccnc(C(=O)N[C@H]2CCC[C@@H](Nc3nc(-c4c[nH]c5ncc(F)cc45)ncc3F)C2)c1` [Compound A288] was run?
A: The EC50 was 5 to 25 µM.

Q: Which EC50 [1] does the source give for `CCOCCOCCOCCNC(=O)N(Cc1ccccc1)[C@@H]1CCC[C@H](Nc2nc(-c3c[nH]c4ncc(F)cc34)ncc2F)C1` [Compound B1] here?
A: The EC50 was greater than 100 µM.

Q: `CCOCCOCCOCCNC(=O)N(CCc1ccccc1)[C@@H]1CCC[C@H](Nc2nc(-c3c[nH]c4ncc(F)cc34)ncc2F)C1` [Compound B2] was tested. Which EC50 [1] did it give?
A: Its EC50 is 50 to 100 µM.

Q: For `CCOCCOCCOCCNC(=O)N(CCCc1ccccc1)[C@@H]1CCC[C@H](Nc2nc(-c3c[nH]c4ncc(F)cc34)ncc2F)C1` [Compound B3], which EC50 [1] is on record?
A: The EC50 was 50 to 100 µM.

Q: For `CCOCCOCCOCCNC(=O)N(CCOCCOCC)[C@@H]1CCC[C@H](Nc2nc(-c3c[nH]c4ncc(F)cc34)ncc2F)C1` [Compound B4], which EC50 [1] is on record?
A: The EC50 was greater than 100 µM.

Q: For `CCOCCOCCOCCNC(=O)N(CCOCc1ccccc1)[C@@H]1CCC[C@H](Nc2nc(-c3c[nH]c4ncc(F)cc34)ncc2F)C1` [Compound B5], which EC50 [1] is on record?
A: The EC50 was greater than 100 µM.

Q: Which EC50 [1] does the source give for `CCOCCOCCOCCN(C(=O)N(C)C)[C@@H]1CCC[C@H](Nc2nc(-c3c[nH]c4ncc(F)cc34)ncc2F)C1` [Compound B6] here?
A: The EC50 was greater than 100 µM.

Q: `CCOCCOCCCCCN(CC(=O)N(C)C)C(=O)N[C@@H]1CCC[C@H](Nc2nc(-c3c[nH]c4ncc(F)cc34)ncc2F)C1` [Compound B7] was tested. Which EC50 [1] did it give?
A: Its EC50 is 25 to 50 µM.

Q: With `O=C(COCCOCCOCCO)N1CCC[C@H](Nc2nc(-c3c[nH]c4ncc(F)cc34)ncc2F)C1` [Compound C1] as the compound, how does the IC50 [2] read?
A: Its IC50 is 5 to 25 µM.

Q: What about the IC50 [4] of the same compound?
A: Its IC50 is 5 to 25 µM.

Q: For `CCOCCOCCOCC(=O)N1CCC[C@H](Nc2nc(-c3c[nH]c4ncc(F)cc34)ncc2F)C1` [Compound C2], which IC50 [2] is on record?
A: The IC50 was 5 to 25 µM.

Q: What about the IC50 [4] of the same compound?
A: The IC50 was 5 to 25 µM.

Q: How did the EC50 [1] turn out when `NCCOCCOCCOCC(=O)N1CCC[C@H](Nc2nc(-c3c[nH]c4ncc(F)cc34)ncc2F)C1` [Compound C4] was run?
A: Its EC50 is 5 to 25 µM.

Q: How did the EC50 [1] turn out when `O=C(O)CCC(=O)N1CCC[C@H](Nc2nc(-c3c[nH]c4ncc(F)cc34)ncc2F)C1` [Compound C5] was run?
A: Its EC50 is less than 5 µM.

Q: For `CCOC(=O)CCOCCOCCOCC(=O)N1CCC[C@@H](Nc2nc(-c3c[nH]c4ncc(F)cc34)ncc2F)C1` [Compound C6], which EC50 [1] is on record?
A: Its EC50 is 5 to 25 µM.

Q: `O=C(O)CCCN1CCC[C@H](Nc2nc(-c3c[nH]c4ncc(F)cc34)ncc2F)C1` [Compound C7] was tested. Which EC50 [1] did it give?
A: The EC50 was 5 to 25 µM.

Q: Which EC50 [1] does the source give for `CCOCCOCCCCCN(C)C(=O)N1CCC(CNc2nc(-c3c[nH]c4ncc(F)cc34)ncc2F)C1` (stereo not shown) [Compound C8] here?
A: Its EC50 is greater than 100 µM.

Q: With `CCOCCOCCCCCN(C)C(=O)N1CCC(C(=O)Nc2nc(-c3c[nH]c4ncc(F)cc34)ncc2F)C1` (stereo not shown) [Compound C9] as the compound, how does the EC50 [1] read?
A: The EC50 was greater than 100 µM.

Q: Which EC50 [1] does the source give for `O=C(O)CC(=O)N1CCC[C@H](Nc2nc(-c3c[nH]c4ncc(F)cc34)ncc2F)C1` [Compound C10] here?
A: The EC50 was less than 5 µM.

Q: How did the EC50 [1] turn out when `CCOC(=O)CN1CCC[C@H](Nc2nc(-c3c[nH]c4ncc(F)cc34)ncc2F)C1` [Compound C11] was run?
A: The EC50 was 25 to 50 µM.

Q: Which EC50 [1] does the source give for `O=C(O)CN1CCC[C@H](Nc2nc(-c3c[nH]c4ncc(F)cc34)ncc2F)C1` [Compound C12] here?
A: The EC50 was 5 to 25 µM.

Q: `O=C(O)CCN1CCC[C@H](Nc2nc(-c3c[nH]c4ncc(F)cc34)ncc2F)C1` [Compound C13] was tested. Which EC50 [1] did it give?
A: Its EC50 is 5 to 25 µM.

Q: Which EC50 [1] does the source give for `CCOC(=O)CCN1CCC[C@@H](Nc2nc(-c3c[nH]c4ncc(F)cc34)ncc2F)C1` [Compound C14] here?
A: The EC50 was 5 to 25 µM.
